Experimental data reported in PMC8730469 (Bioorganic & Medicinal Chemistry Letters, 2022).

What follows are molecules tested against T1, SARS-CoV-2 M^pro (Severe acute respiratory syndrome coronavirus 2, UniProt P0DTD1) (assay: not given). Conditions: not given.
Format: biochemical

SMILES | inhibitory activity (in words)
O=C(O)Cn1sc2cc(F)ccc2c1=O [Compound 13a] | reduced dramatically
O=C(Cn1sc2c(C(F)(F)F)cccc2c1=O)Nc1ccccc1 [Compound 16b-13] | decreased the activity drastically
COc1cccc2c(=O)n(CC(=O)Nc3ccccc3)sc12 [Compound 16b-9] | decreased the activity drastically
Nc1cccc2c(=O)n(CC(=O)Nc3ccccc3)sc12 [Compound 16b-17] | decreased the activity drastically
O=c1[nH]sc2cc(F)ccc12 [Compound 3a] | reduced dramatically

These molecules were tested against T1, SARS-CoV-2 M^pro (assay: fast dilution experiment). Conditions: Fig. S1 and Table S1.

SMILES | reversibility of inhibition
O=C(Cn1sc2cccc(F)c2c1=O)Nc1ccccc1 [Compound 16b-3] | irreversible inhibitor
